One series relates to HCT-116. Put plainly: Antiproliferative activity against human HCT-116 cells measured after 72 hrs by MTT assay. The conditions noted are these: HCT-116, 72 h. Format: functional, cell-based. (In general: Tetrazolium dyes change colour on reduction, which living cells bring about.)
Series [1] is described as follows: Metabolic stability in human liver microsomes assessed as half life at 1 uM by LC/MS analysis. Format: ADME, Microsome. For orientation: Liver microsomes are a subcellular fraction often used to study metabolism.
A further series concerns K562. Put plainly: cells. The settings on record: Homo sapiens, K562, 72 h.
The test system of a further series is HT-29. Put plainly: Antiproliferative activity against human HT-29 cells measured after 72 hrs by MTT assay. The series is classed as functional, cell-based. The settings on record: HT-29, 72 h.
Another series has as its system MCF7. Put plainly: cells. The settings on record: Homo sapiens, MCF7, 72 h.
A short description of series [2]: Metabolic stability in human liver microsomes assessed as intrinsic clearance at 1 uM by LC/MS analysis. The series is classed as ADME, Microsome. The conditions noted are these: read-out: CLH.
In series [3] the target is Tubulin beta (Homo sapiens) (UniProt P68371+Q9H4B7+Q13509+P04350+Q3ZCM7+P07437+Q13885+Q9BVA1+Q9BUF5+A6NNZ2). Put plainly: Binding affinity to beta-tubulin colchicine binding site in human MCF-7 cells assessed as inhibition of EBI-beta-tubulin adduct band formation preincubated for 2 hrs followed by EBI addition and measured after 1.5 hrs by EBI competition based Western blotting analysis. Format: cell-based. The settings on record: MCF7, dose 0.2-25 µM, time 3.5 hrs. On the technique in general: In western blotting, separated proteins are transferred to a membrane and probed.

A short description of series [4]: Antiproliferative activity against paclitaxel-resistant human MCF7/TxR cells measured after 72 hrs by MTT assay. Format: functional, cell-based.
Series [5] in a line: Antiproliferative activity against paclitaxel-resistant human A549/TxR cells measured after 72 hrs by MTT assay. Format: functional, cell-based.
A further series has as its target Tubulin (Homo sapiens) (UniProt P68371+Q9H4B7+P0DPH7+P68366+Q13509+Q71U36+P04350+Q3ZCM7+P07437+P68363+Q9BQE3+Q6PEY2+Q13885+Q9BVA1+Q9BUF5). Put plainly: Disruption of microtubule network in human MCF7 cells assessed as broken microtubule filaments at 20 nM measured after 6 hrs by immunofluorescence assay. Format: cell-based.
Series [6] can be described thus: Antitumor activity against paclitaxel-resistant human MCF7/TxR cells xenografted in Balb/c mouse assessed as tumor growth inhibition at 10 mg/kg, ip administered for every 2 days for 21 days. The series is classed as functional. The settings on record: 504 h, time 21 day, read-out: TGI.
A short description of series [7]: Toxicity in Balb/c mouse assessed as pathological changes in blood alanine aminotransferase level at 10 mg/kg, ip administered for every 2 days for 14 days. The settings on record: in vivo, 336 h, time 14 day. The series is classed as organism-based.
The nature of series [8]: Toxicity in Balb/c mouse assessed as pathological changes in blood aspartate aminotransferase level at 10 mg/kg, ip administered for every 2 days for 14 days. The series is classed as organism-based. The conditions noted are these: in vivo, 336 h, time 14 day.

Calls of active or inactive are those of the source.

For orientation: IC50 means the point on the concentration scale where inhibition reaches its midpoint. A lower IC50 goes with greater potency in that assay. As a reminder, the half-life is the time needed for the level to fall by half in the phase considered.

Description for K562: Antiproliferative activity against human K562 cells measured after 72 hrs by MTT assay
Description for MCF7: Antiproliferative activity against human MCF7 cells measured after 72 hrs by MTT assay

In the case of `COc1cc([C@@H]2c3cc4c(cc3C[C@H]3COC(=O)N32)OCCO4)cc(OC)c1OC`, the IC50 with HCT-116 was 6.8 nM; in the series with K562, 17.1 nM; in the series with HT-29, 14.9 nM; with MCF7 it was 17.3 nM. Further, in series [1], the half-life at 1 µM amounted to 2.19 min. Also, the CLint scaled at 1 µM in series [2] amounted to 794 mL/min/kg.

In the case of `O=C1NC(=O)N2[C@H](c3cc(Cl)c(F)c(Cl)c3)c3cc4c(cc3C[C@@H]12)OCCO4`, the IC50 in the series on HCT-116 worked out at 22.9 nM; in the series with K562, 49 nM; in the series with HT-29 it was 23.2 nM; in the series with MCF7, 48.8 nM. Further, in series [1], the half-life at 1 µM was found to be 14.4 min. In addition, the CLint scaled at 1 µM in series [2] was 121 mL/min/kg.

Take `COc1ccc(/C=C\c2cc(OC)c(OC)c(OC)c2)cc1O` [COMBRETASTATIN A4]: the IC50 in the series on HCT-116 came out at 6.8 nM; in the series with K562, 11.2 nM; with HT-29 it was 391 nM; in [4], 15.4 nM; in [5], 49.9 nM; with MCF7 it was 5.9 nM. Besides, the Activity entry in series [3] was “Dose-Dependent Effect”. The outcome on Tubulin (Homo sapiens) was Active.

Regarding `COc1cc([C@@H]2c3cc4c(cc3C[C@H]3C(=O)NC(=O)N23)OCCO4)cc(OC)c1OC`, the 50% inhibitory concentration (IC50) in the series with HCT-116 worked out at 27.2 nM; with K562, 31.9 nM; in the series with HT-29 it was 21.4 nM; with MCF7, 16.9 nM. Moreover, the half-life at 1 µM in [1] stood at 21.4 min. In addition, the CLint scaled at 1 µM in series [2] amounted to 81.2 mL/min/kg.

Regarding `COc1cc([C@@H]2c3cc4c(cc3C[C@H]3C(=O)NCC(=O)N23)OCCO4)cc(OC)c1OC`, the IC50 is 3120 nM in the series with HCT-116, 785 nM with K562, 749 nM in the series on HT-29 and 1560 nM in the series with MCF7.

Take `COc1cc([C@@H]2c3cc4c(cc3C[C@H]3COC(=O)N32)OCO4)cc(OC)c1O`: the IC50 with HCT-116, in the series on K562, in the series with HT-29 and in the series with MCF7 was more than 5000 nM throughout.

Regarding `COc1c(Br)cc([C@@H]2c3cc4c(cc3C[C@H]3COC(=O)N32)OCCO4)cc1Br`, the IC50 in the series on HCT-116 is 3.3 nM; in the series on K562, 6.7 nM; in the series on HT-29, 2.4 nM; in the series with MCF7 it was 4.3 nM. Besides, the half-life at 1 µM in [1] stood at 1.27 min. The CLint scaled at 1 µM in series [2] worked out at 1370 mL/min/kg.

For `COc1cc([C@@H]2c3cc4c(cc3C[C@H]3COC(=O)N32)OCCCO4)cc(OC)c1OC`, the IC50 in the series with HCT-116 stood at 119 nM; with K562, 107 nM; in the series on HT-29, 81.9 nM; with MCF7 it was 58.8 nM.

Take `O=C1NC(=O)N2[C@H](c3cc(Cl)nc(Cl)c3)c3cc4c(cc3C[C@@H]12)OCCO4`: the IC50 with HCT-116 is 533 nM; in the series with K562 it was 424 nM; with HT-29, 357 nM; with MCF7, 400 nM.

For `O=C1OC[C@@H]2Cc3cc4c(cc3[C@@H](c3cc(C(F)(F)F)cc(C(F)(F)F)c3)N12)OCCO4`, the IC50 in the series on HCT-116 came out at 312 nM; in the series with K562, 202 nM; with HT-29, 56.8 nM; with MCF7 it was 100 nM.

Turning to `COc1cc([C@@H]2c3cc4c(cc3C[C@H]3COC(=O)N32)OCCO4)cc2c1OCO2`, the IC50 came to 50.9 nM with HCT-116, 29.6 nM with K562, 44.3 nM in the series with HT-29 and 35.4 nM with MCF7.

On to `COc1cc2c(cc1OC)[C@@H](c1cc(OC)c(OC)c(OC)c1)N1C(=O)OC[C@@H]1C2`, for which the IC50 in the series with HCT-116, with K562, with HT-29 and in the series with MCF7 was more than 5000 nM each time.

Turning to `CC(=O)O[C@H]1C(=O)[C@@]2(C)[C@H]([C@H](OC(=O)c3ccccc3)[C@]3(O)C[C@H](OC(=O)[C@H](O)[C@@H](NC(=O)c4ccccc4)c4ccccc4)C(C)=C1C3(C)C)[C@]1(OC(C)=O)CO[C@@H]1C[C@@H]2O` [PACLITAXEL], the IC50 is 62.9 nM in the series with HCT-116; 29.6 nM in the series with K562; 10.8 nM in the series on HT-29; 2750 nM in series [4]; 1670 nM in series [5]; 19.7 nM in the series on MCF7. Moreover, the inhibition in vivo at 10 mg/kg in [6] came out at 28.6%. Further, the Activity result in series [7] and in series [8] was “Toxic” each time.

As for `COc1cc([C@@H]2c3cc4c(cc3C[C@H]3COC(=O)N32)OCO4)cc(OC)c1OC`, the IC50 with HCT-116 amounted to 16.6 nM; in the series with K562, 20 nM; in the series with HT-29 it was 26.7 nM; with MCF7, 33.6 nM.

For `COc1ccc([C@@H]2c3cc4c(cc3C[C@H]3COC(=O)N32)OCO4)cc1OC`, the IC50 is more than 5000 nM in the series with HCT-116, 593 nM with K562, 755 nM in the series with HT-29 and more than 5000 nM in the series with MCF7.

In the case of `CCN1C(=O)[C@@H]2Cc3cc4c(cc3[C@@H](c3cc(OC)c(OC)c(OC)c3)N2C1=S)OCCO4`, the IC50 in the series with HCT-116, with K562, with HT-29 and with MCF7 was more than 5000 nM each time.

In the case of `COc1cc([C@@H]2c3cc4c(cc3C[C@H]3COC(=O)N32)OCCO4)cc(OC)c1Br`, the IC50 is 103 nM in the series on HCT-116, 39.5 nM with K562, 48.4 nM in the series on HT-29 and 37.5 nM in the series on MCF7.

In the case of `COc1cc([C@@H]2c3cc4c(cc3C[C@H]3C(=O)N(C)C(=S)N23)OCCO4)cc(OC)c1OC`, the 50% inhibitory concentration (IC50) in the series with HCT-116, with K562, in the series with HT-29 and in the series on MCF7 was more than 5000 nM each time.

In the case of `COc1cc([C@@H]2c3cc4c(cc3C[C@H]3C(=O)NCC(=O)N23)OCO4)cc(OC)c1OC`, the concentration for half-maximal inhibition (IC50) in the series with HCT-116 came out at 1240 nM; in the series on K562, 789 nM; in the series with HT-29, 1920 nM; in the series with MCF7 it was 2330 nM.

`CCCN1CC(=O)N2[C@H](c3cc(OC)c(OC)c(OC)c3)c3cc4c(cc3C[C@H]2C1=O)OCO4`: the IC50 in the series with HCT-116, with K562, in the series with HT-29 and with MCF7 was more than 5000 nM throughout.

Regarding `COc1c(Cl)cc([C@@H]2c3cc4c(cc3C[C@H]3COC(=O)N32)OCCO4)cc1Cl`, the IC50 in the series on HCT-116 was 5.8 nM; in the series on K562, 6.3 nM; in the series with HT-29 it was 6 nM; with MCF7 it was 5.9 nM. Also, the half-life at 1 µM in series [1] came to 2.95 min. In addition, the CLint scaled at 1 µM in series [2] came to 589 mL/min/kg.

For the compound `COc1cc([C@@H]2c3cc4c(cc3C[C@H]3COC(=O)[C@@H]32)OCO4)cc(OC)c1OC` [DESOXYPODOPHYLLOTOXIN], the 50% inhibitory concentration (IC50) in the series with HCT-116 was found to be 14.5 nM; in the series with K562, 16 nM; with HT-29, 16.6 nM; with MCF7 it was 6 nM. Also, the half-life at 1 µM in series [1] was found to be 1.12 min. For the same compound, in series [2], the CLint scaled at 1 µM worked out at 1440 mL/min/kg.

In the case of `COc1cc([C@@H]2c3cc4c(cc3C[C@H]3C(=O)NC(=O)N23)OCCO4)cc([N+](=O)[O-])c1OC`, the IC50 in the series with HCT-116 worked out at 31.6 nM; in the series with K562 it was 53.4 nM; in the series with HT-29 it was 49.9 nM; in the series on MCF7, 40.7 nM.

The values above are taken from ChEMBL document CHEMBL5236615, “Discovery of Novel N-Heterocyclic-Fused Deoxypodophyllotoxin Analogues as Tubulin Polymerization Inhibitors Targeting the Colchicine-Binding Site for Cancer Treatment” (J Med Chem, 2022).
